Active and inactive are the calls of the source. No cut-off for these calls is given here.
Assays:
[1] = target: T1, Muscarinic acetylcholine receptor M4 (Rattus norvegicus) (UniProt P08485); assay: (§1) Allosteric activation of rat recombinant muscarinic M4 receptor expressed in CHO cells assessed as potentiation of 10 uM acetylcholine-induced calcium mobilization after 1 hr by fluorescence assay; assay type: functional, cell-based
T1 sequence (whole entry): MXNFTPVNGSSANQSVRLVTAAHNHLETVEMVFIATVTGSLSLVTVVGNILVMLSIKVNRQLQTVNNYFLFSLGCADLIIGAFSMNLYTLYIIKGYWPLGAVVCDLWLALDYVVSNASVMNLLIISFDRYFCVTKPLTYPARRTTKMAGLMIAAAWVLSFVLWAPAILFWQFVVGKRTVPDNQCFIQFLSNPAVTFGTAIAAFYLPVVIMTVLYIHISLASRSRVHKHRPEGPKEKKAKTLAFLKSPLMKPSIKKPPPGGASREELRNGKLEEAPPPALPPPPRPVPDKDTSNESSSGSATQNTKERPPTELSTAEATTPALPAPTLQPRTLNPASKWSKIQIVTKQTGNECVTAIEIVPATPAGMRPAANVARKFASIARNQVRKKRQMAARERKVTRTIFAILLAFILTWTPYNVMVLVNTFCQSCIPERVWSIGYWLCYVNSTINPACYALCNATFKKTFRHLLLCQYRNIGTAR

[2] = target: T1, Muscarinic acetylcholine receptor M4 (Rattus norvegicus); assay: Agonist activity at muscarinic M4 receptor in Sprague-Dawley rat hippocampal CA1 pyramidal neuron assessed as reduction in excitatory postsynaptic current at 5 uM by whole-cell electrophysiology in presence of carbachol relative to control; assay type: functional, tissue-based; settings: Hippocampus
[3] = target: T1, Muscarinic acetylcholine receptor M4 (Rattus norvegicus); assay: Allosteric activation of rat recombinant muscarinic M4 receptor expressed in CHO cells assessed as induction of calcium mobilization after 1 hr by fluorescence assay; assay type: functional, cell-based
[4] = target: T2, Muscarinic acetylcholine receptor M2 (Rattus norvegicus) (UniProt P10980); assay: Allosteric activation of rat recombinant muscarinic M2 receptor expressed in CHO cells assessed as potentiation of acetylcholine-induced calcium mobilization at 10 uM after 1 hr by fluorescence assay; assay type: functional, cell-based
T2 sequence (whole entry): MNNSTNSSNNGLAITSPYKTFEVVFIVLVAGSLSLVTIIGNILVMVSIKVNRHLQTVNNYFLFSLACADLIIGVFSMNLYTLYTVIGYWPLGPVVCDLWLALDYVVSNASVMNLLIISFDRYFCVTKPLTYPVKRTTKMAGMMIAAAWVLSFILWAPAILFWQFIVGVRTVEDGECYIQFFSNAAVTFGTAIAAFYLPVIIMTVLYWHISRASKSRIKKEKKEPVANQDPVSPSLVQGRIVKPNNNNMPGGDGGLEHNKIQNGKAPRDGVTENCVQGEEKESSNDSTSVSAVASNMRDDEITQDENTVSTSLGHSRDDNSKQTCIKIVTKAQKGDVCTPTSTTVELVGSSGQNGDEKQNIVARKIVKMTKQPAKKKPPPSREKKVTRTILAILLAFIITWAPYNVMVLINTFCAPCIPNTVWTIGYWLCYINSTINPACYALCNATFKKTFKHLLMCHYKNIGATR

[5] = target: T3, Muscarinic acetylcholine receptor M1 (Rattus norvegicus) (UniProt P08482); assay: Allosteric activation of rat recombinant muscarinic M1 receptor expressed in CHO cells assessed as potentiation of acetylcholine-induced calcium mobilization at 10 uM after 1 hr by fluorescence assay; assay type: functional, cell-based
T3 sequence (whole entry): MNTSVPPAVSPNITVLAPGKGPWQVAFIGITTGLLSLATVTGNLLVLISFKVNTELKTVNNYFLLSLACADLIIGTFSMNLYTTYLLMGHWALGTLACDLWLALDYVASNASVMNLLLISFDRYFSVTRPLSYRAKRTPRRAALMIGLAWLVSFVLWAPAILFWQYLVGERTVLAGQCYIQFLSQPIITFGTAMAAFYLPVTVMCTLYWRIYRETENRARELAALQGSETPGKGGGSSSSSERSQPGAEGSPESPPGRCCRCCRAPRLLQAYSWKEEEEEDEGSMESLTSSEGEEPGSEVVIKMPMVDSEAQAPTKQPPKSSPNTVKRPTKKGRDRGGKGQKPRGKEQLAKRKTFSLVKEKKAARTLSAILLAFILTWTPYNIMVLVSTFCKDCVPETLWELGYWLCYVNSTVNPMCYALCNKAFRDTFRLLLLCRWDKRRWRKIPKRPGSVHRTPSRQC

[6] = target: T1, Muscarinic acetylcholine receptor M4 (Rattus norvegicus); assay: Allosteric activation of rat recombinant muscarinic M4 receptor expressed in CHO cells assessed as […] in acetylcholine EC50 for induction of calcium mobilization at 10 uM after 1 hr by fluorescence assay; assay type: functional, cell-based
[7] = target: T4, Muscarinic acetylcholine receptor M5 (Rattus norvegicus) (UniProt P08911); assay: Allosteric activation of rat recombinant muscarinic M5 receptor expressed in CHO cells assessed as potentiation of acetylcholine-induced calcium mobilization at 10 uM after 1 hr by fluorescence assay; assay type: functional, cell-based
T4 sequence (whole entry): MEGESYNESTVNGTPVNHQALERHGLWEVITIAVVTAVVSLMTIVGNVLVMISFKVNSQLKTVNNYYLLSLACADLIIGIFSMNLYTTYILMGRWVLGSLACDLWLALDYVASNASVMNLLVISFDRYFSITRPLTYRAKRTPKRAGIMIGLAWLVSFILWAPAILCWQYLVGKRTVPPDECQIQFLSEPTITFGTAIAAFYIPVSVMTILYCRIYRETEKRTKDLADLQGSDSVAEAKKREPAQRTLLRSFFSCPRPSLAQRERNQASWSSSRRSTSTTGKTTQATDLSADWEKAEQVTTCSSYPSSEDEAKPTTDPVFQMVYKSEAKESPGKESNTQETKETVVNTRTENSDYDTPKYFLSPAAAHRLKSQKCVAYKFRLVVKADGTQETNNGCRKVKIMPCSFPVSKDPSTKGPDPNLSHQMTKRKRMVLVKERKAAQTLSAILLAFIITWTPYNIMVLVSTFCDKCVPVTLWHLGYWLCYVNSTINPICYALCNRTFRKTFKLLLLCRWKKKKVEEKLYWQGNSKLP

[8] = target: Muscarinic acetylcholine receptor M3 (Rattus norvegicus) (UniProt P08483); assay: Allosteric activation of rat recombinant muscarinic M3 receptor expressed in CHO cells assessed as potentiation of acetylcholine-induced calcium mobilization at 10 uM after 1 hr by fluorescence assay; assay type: functional, cell-based
[9] = target: T5, Muscarinic acetylcholine receptor M4 (Rattus norvegicus, UniProt P08485); assay: as §1; assay type: functional, cell-based
T5 sequence (P08485 whole entry): T1 sequence (whole entry)

[10] = target: T5, Muscarinic acetylcholine receptor M4; assay: Allosteric activation of rat recombinant muscarinic M4 receptor expressed in CHO cells assessed as potentiation of 15 nM acetylcholine-induced calcium mobilization after 1 hr by fluorescence assay; assay type: functional, cell-based

Chain of Muscarinic acetylcholine receptor M3 (Rattus norvegicus) (P08483 whole entry, looked up): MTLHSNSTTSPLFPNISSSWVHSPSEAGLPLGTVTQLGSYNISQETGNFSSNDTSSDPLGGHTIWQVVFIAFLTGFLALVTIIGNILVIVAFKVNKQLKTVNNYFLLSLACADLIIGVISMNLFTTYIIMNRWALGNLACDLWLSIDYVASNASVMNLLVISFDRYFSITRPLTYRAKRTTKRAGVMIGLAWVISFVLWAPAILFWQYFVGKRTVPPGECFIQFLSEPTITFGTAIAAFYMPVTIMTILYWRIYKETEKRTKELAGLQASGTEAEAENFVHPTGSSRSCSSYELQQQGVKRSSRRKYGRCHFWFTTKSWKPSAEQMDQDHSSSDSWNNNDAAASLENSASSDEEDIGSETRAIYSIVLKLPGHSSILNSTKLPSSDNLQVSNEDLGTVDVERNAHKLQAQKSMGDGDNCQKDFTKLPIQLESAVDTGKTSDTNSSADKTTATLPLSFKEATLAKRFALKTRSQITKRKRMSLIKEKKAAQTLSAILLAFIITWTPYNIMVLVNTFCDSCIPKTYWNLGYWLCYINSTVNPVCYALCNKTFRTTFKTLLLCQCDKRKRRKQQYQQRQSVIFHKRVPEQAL

Cc1cc(C)c2c(N)c(C(=O)NCC(C)C)sc2n1
Activity [1]: Active

Cc1cc(C)c2c(N)c(C(=O)N[C@H](C)c3ccccc3)sc2n1
Activity [1]: Active

Cc1cc(C)c2c(N)c(C(=O)NC(C)(C)C)sc2n1
Activity [1]: Active

Cc1cc(C)c2c(N)c(C(=O)N[C@@H](C)c3ccccc3)sc2n1
Activity [1]: inactive
inhibition [2]: 61.6%

CC(=O)OCC[N+](C)(C)C
EC20 [3]: 15 nM
EC100 [3]: 10 µM

Cc1cc(C)c2c(N)c(C(=O)NCc3ccco3)sc2n1
Activity [4]: inactive
Activity [5]: inactive
fold change (FC) [6]: 21
Activity [7]: inactive
Activity [8]: inactive

Cc1cc(C)c2c(N)c(C(=O)NCc3ccc(C(F)(F)F)cc3)sc2n1
fold change (FC) [6]: 37
EC50 [9]: 715 nM

Cc1cc(C)c2c(N)c(C(=O)NCc3ccc(F)cc3)sc2n1
fold change (FC) [6]: 30
EC50 [9]: 300 nM

CCCNC(=O)c1sc2nc(C)cc(C)c2c1N
Activity [1]: Active

Cc1cc(C)c2c(N)c(C(=O)NC(C)C)sc2n1
Activity [4]: inactive
Activity [5]: inactive
EC50 [10]: 6000 nM
Activity [7]: inactive
Activity [8]: inactive

Cc1cc(C)c2c(N)c(C(=O)NC3CC3)sc2n1
Activity [1]: Active

CCNC(=O)c1sc2nc(C)cc(C)c2c1N
Activity [1]: Active

Cc1cc(C)c2c(N)c(C(=O)NCc3ccccc3)sc2n1
Activity [4]: inactive
Activity [5]: inactive
EC50 [10]: 1300 nM
Activity [7]: inactive
Activity [8]: inactive

From ChEMBL document CHEMBL1212695, “An allosteric potentiator of M4 mAChR modulates hippocampal synaptic transmission” (Nat Chem Biol, 2008)
